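Briefly, cells in 96-well plates were exposed to five compound concentrations for 48 h, and endpoints were estimated by linear interpolation. GI50 is the concentration that inhibits growth by half.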 Active and inactive are the calls of the source. Cut-off read from the data, not from the text of the source: active = GI50 up to about 1.1 µM and inactive = higher.
Key:
Assay in all cases: growth of human tumour cells (NCI), 48 h
786-0 = test system: 786-0
ACHN = test system: ACHN
CAKI-1 = test system: CAKI-1
EKVX = test system: EKVX
HCT-116 = test system: HCT-116
LOX IMVI = test system: LOX IMVI
Malme-3M = test system: Malme-3M
NCI-H23 = test system: NCI-H23
OVCAR-4 = test system: OVCAR-4
SK-MEL-2 = test system: SK-MEL-2
SK-OV-3 = test system: SK-OV-3
SN12C = test system: SN12C
SNB-75 = test system: SNB-75
SR = test system: SR
UACC-257 = test system: UACC-257
UO-31 = test system: UO-31
COLO 205 = test system: COLO 205
OVCAR-3 = test system: OVCAR-3
T47D = test system: T47D

Measured: GI50

C/C(=N\NS(=O)(=O)c1ccc(C)cc1)c1c(O)cc(C)oc1=O
inactive: 786-0 > 100 µM | ACHN > 100 µM | CAKI-1 > 100 µM | EKVX > 100 µM | HCT-116 > 100 µM | LOX IMVI > 100 µM | Malme-3M > 100 µM | NCI-H23 > 100 µM | OVCAR-4 29.1 µM | SK-MEL-2 > 100 µM | SK-OV-3 > 100 µM | SN12C > 100 µM | SNB-75 > 100 µM | SR > 100 µM | UACC-257 > 100 µM | UO-31 > 100 µM

Cc1cc(C)c(-c2noc(-c3ccc(Cl)cc3)c2C2=NCCN2)c(C)c1
inactive: 786-0 15.3 µM | ACHN 23.1 µM | CAKI-1 76.4 µM | COLO 205 16.4 µM | EKVX 22.9 µM | HCT-116 12.1 µM | LOX IMVI 20.3 µM | Malme-3M 20.4 µM | NCI-H23 17.4 µM | OVCAR-3 21 µM | OVCAR-4 78.9 µM | SK-MEL-2 22.6 µM | SK-OV-3 13.7 µM | SN12C 20.3 µM | SNB-75 17.1 µM | SR 16.4 µM | UACC-257 17.5 µM | UO-31 6.38 µM

CCOC(=O)C(=O)Nc1ccc(C)cc1C
inactive: 786-0 > 100 µM | ACHN > 100 µM | CAKI-1 > 100 µM | COLO 205 > 100 µM | EKVX > 100 µM | HCT-116 > 100 µM | LOX IMVI > 100 µM | Malme-3M > 100 µM | NCI-H23 > 100 µM | OVCAR-3 > 100 µM | OVCAR-4 > 100 µM | SK-MEL-2 > 100 µM | SK-OV-3 > 100 µM | SN12C > 100 µM | SR > 100 µM | UACC-257 > 100 µM | UO-31 > 100 µM

CC(=O)NC(C)c1ccc(/N=N/N2CCCC2)cc1 (stereo not drawn)
inactive: 786-0 > 100 µM | ACHN > 100 µM | CAKI-1 > 100 µM | COLO 205 > 100 µM | EKVX > 100 µM | HCT-116 > 100 µM | LOX IMVI > 100 µM | Malme-3M > 100 µM | NCI-H23 > 100 µM | OVCAR-3 > 100 µM | OVCAR-4 > 100 µM | SK-MEL-2 > 100 µM | SK-OV-3 > 100 µM | SN12C > 100 µM | SNB-75 > 100 µM | T47D > 100 µM | UACC-257 > 100 µM | UO-31 > 100 µM

C#CCNC(=O)NCCCCC(NC(C)=O)C(=O)NCc1ccccc1 (stereo not drawn)
inactive: 786-0 > 100 µM | ACHN > 100 µM | CAKI-1 > 100 µM | COLO 205 > 100 µM | EKVX > 100 µM | HCT-116 > 100 µM | LOX IMVI > 100 µM | Malme-3M > 100 µM | NCI-H23 > 100 µM | OVCAR-3 > 100 µM | OVCAR-4 > 100 µM | SK-OV-3 > 100 µM | SN12C > 100 µM | SNB-75 > 100 µM | SR > 100 µM | UACC-257 > 100 µM | UO-31 > 100 µM

CN1CCC(SC2Cc3cc(Cl)ccc3Sc3ccccc32)CC1 (stereo not drawn)
inactive: 786-0 13 µM | ACHN 14.6 µM | CAKI-1 10.7 µM | COLO 205 12.9 µM | EKVX 18.5 µM | HCT-116 10.4 µM | LOX IMVI 11.5 µM | Malme-3M 14.2 µM | NCI-H23 14.1 µM | OVCAR-3 13.6 µM | OVCAR-4 14.7 µM | SK-OV-3 15.8 µM | SN12C 14.6 µM | SNB-75 8.79 µM | SR 8.18 µM | UACC-257 7.96 µM | UO-31 3.86 µM

CC1OC(OP(=O)(OCc2ccccc2)OCc2ccccc2)C(OC(=O)c2ccccc2)C(OC(=O)c2ccccc2)C1I (stereo not drawn)
inactive: 786-0 50.9 µM | ACHN 32.6 µM | CAKI-1 29.6 µM | COLO 205 30.2 µM | EKVX 40.9 µM | HCT-116 28.1 µM | LOX IMVI 47.4 µM | Malme-3M 39.4 µM | NCI-H23 30.3 µM | OVCAR-3 46 µM | OVCAR-4 60.1 µM | SK-MEL-2 23.8 µM | SK-OV-3 > 100 µM | SN12C 20.9 µM | SNB-75 9.31 µM | SR 17.5 µM | UACC-257 39.3 µM | UO-31 27.4 µM

N=S(c1ccccc1)c1ccccc1[N+](=O)[O-] (stereo not drawn)
inactive: 786-0 14.9 µM | ACHN 17.3 µM | CAKI-1 13.7 µM | COLO 205 19.8 µM | EKVX 19.8 µM | HCT-116 17.8 µM | LOX IMVI 13.1 µM | Malme-3M 15.1 µM | NCI-H23 20 µM | OVCAR-3 10.6 µM | OVCAR-4 14.8 µM | SK-MEL-2 29.3 µM | SK-OV-3 33 µM | SN12C 15.8 µM | SNB-75 25.8 µM | SR 18.3 µM | UACC-257 18.1 µM | UO-31 16 µM

COc1ccc(NC(=O)C/C(C)=N\N=C(N)N)c([N+](=O)[O-])c1
inactive: 786-0 > 100 µM | ACHN > 100 µM | CAKI-1 > 100 µM | COLO 205 > 100 µM | EKVX > 100 µM | HCT-116 > 100 µM | LOX IMVI 33.9 µM | Malme-3M > 100 µM | NCI-H23 > 100 µM | OVCAR-3 > 100 µM | OVCAR-4 > 100 µM | SK-MEL-2 > 100 µM | SK-OV-3 > 100 µM | SN12C > 100 µM | SNB-75 > 100 µM | SR 23.3 µM | UACC-257 > 100 µM | UO-31 > 100 µM

ClCCN(CC#CCCCC#CCN(CCCl)CCCl)CCCl
inactive: 786-0 4.61 µM | ACHN 3.82 µM | CAKI-1 7.67 µM | COLO 205 15.6 µM | EKVX 22.8 µM | HCT-116 10.4 µM | LOX IMVI 5.86 µM | Malme-3M 14.2 µM | NCI-H23 6.85 µM | OVCAR-3 11.6 µM | OVCAR-4 20.6 µM | SK-MEL-2 13 µM | SK-OV-3 9.31 µM | SN12C 7.21 µM | SNB-75 10.3 µM | SR 2.03 µM | UACC-257 13.8 µM | UO-31 25.8 µM

C=CC1(c2ccc(OC)cc2)OCCCO1
inactive: 786-0 > 100 µM | ACHN > 100 µM | COLO 205 > 100 µM | EKVX 15 µM | HCT-116 > 100 µM | LOX IMVI > 100 µM | Malme-3M > 100 µM | NCI-H23 > 100 µM | OVCAR-3 > 100 µM | OVCAR-4 > 100 µM | SK-MEL-2 > 100 µM | SK-OV-3 > 100 µM | SN12C > 100 µM | SNB-75 > 100 µM | SR > 100 µM | T47D > 100 µM | UACC-257 > 100 µM | UO-31 > 100 µM

— ChEMBL document CHEMBL1201862, “PubChem BioAssay data set” (2004)
